Measured values reported in US20050118244A1, “Transmittal therapeutic systems containing steroid hormones and propylene glycol monocaprylate” (LTS Lohmann Therapie-System AG, priority 2001, published 2005).

Assay: Flux of active ingredient from transdermal therapeutic system in modified Franz diffusion cell
Assay type: in vitro ADME, human
Details: for Cumulative amount of active ingredient after 3 days: human epidermis, 32° C.
Experimental: The measurements were carried out as follows: a modified Franz diffusion cell and, in each case, a transdermal therapeutic system with an effective diffusion area of 4.1 cm^2 was used. The test temperature was 32° C. The flux of active ingredient was measured on an epidermis from human skin. The acceptor used was an aqueous solution of 0.1% hydroxypropyl-β-cyclodextrin+0.1% NaN3; the acceptor volume was 9 ml (volume exchange after 32, 48, 56 and 72 hours).

Row | Structure (SMILES) | Cumulative amount of active ingredient after 3 days (TTS formula: Progestogen (Org 30659) 5.0 % by weight, Durotak 2287 90.0 %, propylene glycol monocaprylate 5.0 %) | Cumulative amount of active ingredient after 3 days (TTS formula: Progestogen (Org 30659) 5.0 % by weight, Durotak 2287 95.0 %, no penetration promoter) | Cumulative amount of active ingredient after 3 days (TTS formula: Testosterone 2.0 % by weight, Durotak 2287 93.0 %, propylene glycol monocaprylate 5.0 %) | Cumulative amount of active ingredient after 3 days (TTS formula: Testosterone 2.0 % by weight, Durotak 2287 98.0 %, no penetration promoter) | Increase of the flux of active ingredient on use of 5% propylene glycol monocaprylate (TTS with 5% propylene glycol monocaprylate versus TTS without, Examples 1 and 2)
1 | C#C[C@]1(O)C=C[C@H]2[C@@H]3CCC4=CC(=O)CC[C@@H]4[C@H]3C(=C)C[C@@]21C [Progestogen (Org 30659), (17α)-17-hydroxy-11-methylene-19-norpregna-4,15-dien-20-yn-3-one] | 51.3 μg/cm^2 | 44.7 μg/cm^2 |  |  | 
2 | C[C@]12CC[C@H]3[C@@H](CCC4=CC(=O)CC[C@@]43C)[C@@H]1CC[C@@H]2O [Testosterone, testosterone] |  |  | 36.2 μg/cm^2 | 30.2 μg/cm^2 | about 20%
